Common to all, as to assay type: in vivo, Wistar rats
Assay [1] has as its system rats with alloxan-induced diabetes. Put plainly: Healing of excision wounds in rats with alloxan-induced diabetes, solutions applied on the wound. As to conditions: diabetic rats, 200 μl/daily on wound surface until full healing. On the procedure: Use of 2-[(3Z)-6-fluoro-2-methyl-3-[(4-methylsulfinylphenyl)methylidene]inden-1-yl] acetic acid (sulindac) for the treatment of difficult healing wounds in rats with alloxan-induced diabetes.
63 adult male Wistar rats were used in the experiment. All animals were kept under observation for two weeks before the onset of the experiment to exclude any intercurrent infection. Animals were housed in standard plastic cages by 5 animals per cage. Rats were kept in air-conditioned room at 22±2° C., humidity of 60-70% and a natural light (12/12 in the day/night cycle). All rats were fed ad libitum with standard laboratory rats chow.
Diabetes mellitus was induced with alloxan, a highly toxic compound that destroyed the β-cells of the pancreas Langerhans islets, by single intraperitoneally injection at dose 170 mg per kg of body weight in 0.1 M citrate-phosphate buffer, pH 4.0 after 24-hours fasting. After alloxan administration drinking water was replaced by 2 per cent sucrose solution in tap water on 10 days period.
Rats were identified as diabetic on the basis of blood glucose levels (higher than 16 mmol/l after 12 h starvation at 10 days post-alloxan treatment; total 31 rats were diabetic). […]
Every day wounds were photographed by digital camera. Wound macroscopic parameters were quantified using the ImageJ software (NIH, USA).

In another assay the test system is sorbitol. Put plainly: Sorbitol in subcutaneous muscle subjacent to the wound. As to conditions: diabetic rats, wet muscle weight. On the procedure: Each muscle sample was cut into small pieces and ground in the presence of liquid nitrogen until it was powdered. The weight of the powered muscle tissue was determined, after which 1 mL of ice-cold 0.5 M perchloric acid was added and the samples were sonicated. The sonicated tissue was centrifuged for 5 min to remove precipitate. The resulting supernatant was neutralized by adding a solution 0.5 M potassium carbonate. The solution was then vortexed for 45 seconds, then centrifuged for 5 min at 5000 g and precipitate was discarded. The samples were stored in deep freezer at −86° C. until sorbitol determination.
The neutralized muscle extracts were vortexed and 10 μL aliquots along with sorbitol standards were added to a 96 well plate. Sorbitol dehydrogenase reaction was started by adding to each well 10 μL of a reaction mix containing 20 μg/μL sorbitol dehydrogenase, 2 mM NAD in 50 mM glycine-NaOH buffer pH 9.7. Following incubation with sorbitol dehydrogenase for 30 min at room temperature, 100 μL of a solution containing 65 μg/mL diaphorase, 10 uM FMN, 20 μM resazurin in 50 mM glycine-NaOH, pH 9.7 was added and the fluorescence (ex/em at 544/590 nm) was determined on a fluorescent plate reader for a period of an hour. Sorbitol content was expressed in nmol/mg of wet muscle weight.

The next assay has as its target T1, aldose reductase (Rattus norvegicus, UniProt P07943).
T1 construct: Tissue samples were homogenized in 135 mM Na, K-phosphate buffer (pH 7.0) containing 5 mM 2-mercaptoethanol; from tissue; host or cells: rat subcutaneous muscle subjacent to the wound (supernatant of the homogenate)
The assay is described as follows: Rat subcutaneous muscle aldose reductase activity. The note with it: subcutaneous muscle subjacent wound, diabetic rats. On the procedure:
Tissue samples were homogenized in 135 mM Na, K-phosphate buffer (pH 7.0) containing 5 mM 2-mercaptoethanol. The homogenate was centrifuged at 12,000 g for 30 min and the supernatant was used in the following steps. Aldose reductase activity was determined according to the classic method with glyceraldehyde as substrate. The incubation mixture contained 135 mM Na, K-phosphate buffer (pH 7.0), 100 mM lithium sulfate, 0.03 mM NADPH, 0.04 mM D,L-glyceraldehyde (monomerized at 80 deg C. for 10 min and cooled to RT) as a substrate and the sample solution (50 μL). The reaction was initiated by adding NADPH at 37 C and stopped by adding 0.5 M HCl, followed by the addition of 6 M NaOH containing 10 mM imidazole. The solution was heated at 60 C for 10 min to convert NADP to a fluorescent product. The fluorescence was measured using a spectrofluorometer with ex/em 360/460 nm. The assay was performed in duplicates. Protein content was determined using BCA assay.

Assay [2] concerns rats with alloxan-induced diabetes. Put plainly: Histology of healed wound skin. As to conditions: diabetic rats, skin excised next day after full epithelization; hematoxylin-eosin and van Gison staining. On the procedure: Tissue specimens next day after full epithelization were excised in depth to include underlying connective tissues above the external fascia of the dorsal muscles. The excised skin was fixed in paraformaldehyde (4% in PBS, 0.01 M, pH 7.4), dehydrated in graded alcohol solutions, embedded in paraffin blocks and sectioned at 5 μm-thick serial sections using microtome.
Preparations from the collected skin fragments were prepared in a standard manner and stained with the classic method using hematoxylin and eosin, and by the van Gison method using picric acid and acid fuchsine. The preparations were analyzed using a Leica DM 1000 light microscope equipped with a Leica DFC300 FX digital camera.

Where [3] appears, read: mediana (25th; 75th percentile).

With `CC1=C(CC(=O)O)c2cc(F)ccc2/C1=C\c1ccc([S+](C)[O-])cc1` (stereo not shown) [Sul, 2-[(3Z)-6-fluoro-2-methyl-3-[(4-methylsulfinylphenyl)methylidene]inden-1-yl] acetic acid], the figures for the Full healing in assay [1] (M±m (SEM)) and in assay [1] (setting [3]) were 23.7 ± 0.65 days and 24.0(22.0; 25.0) ^Δ days, respectively. Moreover, the Sorbitol levels in the assay with sorbitol (M±m (SEM)) is 0.057 ± 0.005 nmol/mg; in the assay with sorbitol (setting [3]) it was 0.053(0.048; 0.075) ^ΔΔΔ nmol/mg. Also, the AR was 0.64 ± 0.04 nmole NADPH/min/mg protein on aldose reductase (M±m (SEM)) and 0.677(0.63; 0.69) ^ΔΔΔ nmole NADPH/min/mg protein at aldose reductase (setting [3]). The “Histology of the area of damage” value in assay [2] is “the skin was rebuilt in the form of a scar tissue made of modified connective tissue”.
